Here are results for twelve compounds from BindingDB's records for doi:10.1021/acs.jmedchem.9b00781 (Seoul National University, 2019).

Structures are written as SMILES. pEC50: −log10 of the molar value. Bounds are passed on as bounds.

This assay is described as follows: Inhibition of RNA-dependent RNA polymerase in ZIKV SL0612 infected in African green monkey Vero cells assessed as reduction in virus-induced cytopathic effect measured after 96 hrs post-infection by MTS assay.

As to `O=c1ccn([C@H]2[C@H](O)[C@H](O)[C@@H](CO)[C@@H]2F)c(=O)[nH]1`, the pEC50 (in general, the EC50 on a negative log10 scale, so that one unit is a factor of ten) was < 4.00.

On to `O=c1ccn([C@H]2[C@H](O)[C@H](O)[C@@H](CO)[C@H]2F)c(=O)[nH]1`, for which the pEC50 is < 4.00.

On to `Nc1ncnc2c1ncn2[C@H]1[C@H](O)[C@H](O)[C@@H](CO)C1(F)F`, for which the pEC50 was 6.59.

For the compound `CNc1ncnc2c1ncn2[C@H]1[C@H](O)[C@H](O)[C@@H](CO)C1(F)F`, the negative logarithm of the EC50 (pEC50) is < 4.00.

On to `O=c1ccn([C@H]2[C@H](O)[C@H](O)[C@@H](CO)C2(F)F)c(=O)[nH]1`, for which the pEC50 was < 4.00.

As to `CC(C)OC(=O)[C@H](C)N[P@](=O)(OC[C@@H]1[C@@H](O)[C@@H](O)[C@H](n2cnc3c(N)ncnc32)C1(F)F)Oc1ccccc1`, the pEC50 was 5.76.

In the case of `CC(C)OC(=O)[C@H](C)N[P@](=O)(OC[C@@H]1[C@@H](O)[C@@H](O)[C@H](n2ccc(=O)[nH]c2=O)[C@@H]1F)Oc1ccccc1`, the pEC50 was < 4.00.

As for `Nc1ccn([C@H]2[C@H](O)[C@H](O)[C@@H](CO)C2(F)F)c(=O)n1`, the pEC50 was < 4.00.

For `CC(C)OC(=O)[C@H](C)N[P@](=O)(OC[C@@H]1[C@@H](O)[C@@H](O)[C@H](n2ccc(=O)[nH]c2=O)C1(F)F)Oc1ccccc1`, the pEC50 is < 4.00.

As to `CNc1ncnc2c1ncn2[C@H]1[C@H](O)[C@H](O)[C@@H](CO)[C@H]1F`, the pEC50 was < 4.00.

Take `Nc1ccn([C@H]2[C@H](O)[C@H](O)[C@@H](CO)[C@H]2F)c(=O)n1`: the pEC50 is < 4.00.

Consider `Nc1ncnc2c1ncn2[C@@H]1C[C@H](CO)[C@@H](O)[C@H]1O` [3-(6-Amino-purin-9-yl)-5-hydroxymethyl-cyclopentane-1,2-diol], for which the pEC50 was 6.19.
